This note sets out measurements from US20200069691A1, “HETEROCYCLIC COMPOUNDS AS HIV PROTEASE INHIBITORS” (Merck Sharp & Dohme Corp., priority 2016, published 2020).

In general, IC50 refers to the concentration at which inhibition is half-maximal.

The experiment deals with T1, wild-type HIV-1 protease (Human immunodeficiency virus type 1 group M subtype B, UniProt P04585).
T1 construct: Escherichia coli expressed wild-type HIV-1 protease protein
Kind of experiment: Assay for Inhibition of Microbial Expressed HIV Protease (peptide substrate cleavage, LC-MS/MS readout). Particulars: E. coli expressed wild-type HIV-1 protease, mean of at least two independent experiments, read-out: HIV Pr Enzyme HIV1 PR IC50. The class given is biochemical. The essentials: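 Cleavage of Val-Ser-Gln-Asn-(β-naphthyl)Ala-Pro-Ile-Val (400 μM) by recombinant HIV-1 protease ([…]) ran 1 h at 30 °C after a 30 min room-temperature inhibitor preincubation in 50 mM sodium acetate pH 5.5. Product peak areas by LC-MS/MS gave inhibition; values average at least two independent runs.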

Turning to `C[S+]([O-])c1cccc(-c2ncc3c(n2)CN(C(=O)c2cc(CN4C(=N)N[C@](CCCC(F)(F)F)(c5ccc(F)cc5)C4=O)ccc2C(F)(F)F)C3)c1` (stereo partly drawn) [Compound 21, (5R)-5-(4-fluorophenyl)-2-imino-3-[3-({2-[3-(methylsulfmyl)phenyl]-5,7-dihydro-6H-pyrrolo[3,4-d]pyrimidin-6-yl}carbonyl)-4-(trifluoromethyl)benzyl]-5-(4,4,4-trifluorobutyl)imidazolidin-4-one], the IC50 was found to be 2.31 nM.

Take `COC(=O)Nc1ncc2c(n1)CN(C(=O)c1ccc3c(c1)[C@H](N1C(=N)N[C@](CCC(C)C)(c4ccccc4)C1=O)CC3)C2` [Compound 96, methyl [6-({(3R)-3-[(4R)-2-imino-4-(3-methylbutyl)-5-oxo-4-phenylimidazolidin-1-yl]-2,3-dihydro-1H-inden-5-yl}carbonyl)-6,7-dihydro-5H-pyrrolo[3,4-d]pyrimidin-2-yl]carbamate]: the IC50 turned out to be 20.4 nM. With `CC(C)CC1(c2ccccc2)NC(=N)N(Cc2cccc(C(=O)N3CCN(c4ccccc4)CC3)c2)C1=O` (centres unmarked) [Compound 342, 2-imino-5-(2-methylpropyl)-5-phenyl-3-{3-[(4-phenylpiperazin-1-yl)carbonyl]benzyl} imidazolidin-4-one], the half-inhibitory concentration (IC50) came to 78.8 nM. On to `N=C1NC(c2ccc(F)cc2)(c2ccccn2)C(=O)N1Cc1cccc(C(=O)N2Cc3[nH]nc(C(F)(F)F)c3C2)c1` (centres unmarked) [Compound 248, 5-(4-fluorophenyl)-2-imino-5-pyridin-2-yl-3-(3-{[3-(trifluoromethyl)-4,6-dihydropyrrolo [3,4-c]pyrazol-5(1H)-yl]carbonyl}benzyl) imidazolidin-4-one], for which the IC50 came to 18 nM. As to `CC(C)C[C@@]1(c2ccccc2)NC(=N)N(Cc2ccc(C(F)(F)F)c(C(=O)N3Cc4nccnc4C3)c2)C1=O` [Compound 174, (5S)-3-[3-(5,7-dihydro-6H-pyrrolo[3,4-b]pyrazin-6-ylcarbonyl)-4-(trifluoromethyl)-benzyl]-2-imino-5-(2-methylpropyl)-5-phenylimidazolidin-4-one], the IC50 was found to be 54.9 nM. To `C=CCOC(=O)N1CCN(C(=O)c2cc(CN3C(=N)N[C@](CCCC(F)(F)F)(c4ccc(F)cc4)C3=O)ccc2C(F)(F)F)CC1` [Compound 102, prop-2-en-1-yl 4-{[5-{[(4R)-4-(4-fluorophenyl)-2-imino-5-oxo-4-(4,4,4-trifluorobutyl)imidazolidin-1-yl]methyl}-2-(trifluoromethyl)-phenyl]carbonyl} piperazine-1-carboxylate] belongs 23.2 nM. In the case of `N=C1N[C@](CCCC(F)(F)F)(c2ccc(F)cc2)C(=O)N1Cc1ccc(C(F)(F)F)c(C(=O)N2Cc3cnc(-c4cccc(C(=O)N5CCSCC5)c4)nc3C2)c1` [Compound 67, (5R)-5-(4-fluorophenyl)-2-imino-3-[3-({2-[3-(thiomorpholin-4-ylcarbonyl)phenyl]-5,7-dihydro-6H-pyrrolo[3,4-d]pyrimidin-6-yl}carbonyl)-4-(trifluoromethyl)-benzyl]-5-(4,4,4-trifluorobutyl)-imidazolidin-4-one], the IC50 is 7.87 nM. Regarding `CC(C)CC1(c2ccccc2)NC(=N)N(Cc2ccc(Cl)c(C(=O)N3Cc4nccnc4C3)c2)C1=O` (centres unmarked) [Compound 365, 3-[4-chloro-3-(5,7-dihydro-6H-pyrrolo[3,4-b]pyrazin-6-ylcarbonyl)benzyl]-2-imino-5-(2-methylpropyl)-5-phenylimidazolidin-4-one], the IC50 is 4.87 nM. The figure for `COC(=O)Nc1ncc2c(n1)CN(C(=O)c1cc(CN3C(=N)NC(c4ccc(F)cc4)(c4ccc(F)cc4)C3=O)ccc1F)C2` [Compound 370, methyl {6-[(5-{[4,4-bis(4-fluorophenyl)-2-imino-5-oxoimidazolidin-1-yl]methyl}-2-fluorophenyl)carbonyl]-6,7-dihydro-5H-pyrrolo[3,4-d]pyrimidin-2-yl}carbamate] is 5.81 nM; for `CC(=O)N1CCN(C(=O)c2cc(CN3C(=N)N[C@](CCCC(F)(F)F)(c4ccc(F)cc4)C3=O)ccc2C(F)(F)F)CC1` [Compound 109, (5R)-3-{3-[(4-acetylpiperazin-1-yl)carbonyl]-4-(trifluoromethyl)-benzyl}-5-(4-fluorophenyl)-2-imino-5-(4,4,4-trifluorobutyl)-imidazolidin-4-one] it is 26.5 nM; for `CC(=O)c1cccc(-c2ncc3c(n2)CN(C(=O)c2cc(CN4C(=N)N[C@](CCCC(F)(F)F)(c5ccc(F)cc5)C4=O)ccc2C(F)(F)F)C3)c1` [Compound 59, (5R)-3-[3-{[2-(3-acetylphenyl)-5,7-dihydro-6H-pyrrolo[3,4-d]pyrimidin-6-yl]carbonyl}-4-(trifluoromethyl)benzyl]-5-(4-fluorophenyl)-2-imino-5-(4,4,4-trifluorobutyl)imidazolidin-4-one] it is 6.45 nM. On to `N#Cc1cccc(C2(c3ccc(F)cc3)NC(=N)N(Cc3cccc(C(=O)N4Cc5ccccc5C4)c3)C2=O)c1` (centres unmarked) [Compound 262, 3-{1-[3-(1,3-dihydro-2H-isoindol-2-ylcarbonyl)benzyl]-4-(4-fluorophenyl)-2-imino-5-oxoimidazolidin-4-yl}benzonitrile], for which the concentration for half-maximal inhibition (IC50) is 24.4 nM. The figure for `N=C1NC(c2ccccc2)(c2ccccc2)C(=O)N1Cc1cccc(C(=O)N2Cc3ccc(C(F)(F)F)cc3C2)c1` [Compound 233, 2-imino-5,5-diphenyl-3-(3-{[5-(trifluoromethyl)-1,3-dihydro-2H-isoindol-2-yl]carbonyl}benzyl)-imidazolidin-4-one] is 14 nM; for `CNc1ncc2c(n1)CN(C(=O)c1cc(CN3C(=N)N[C@](CCCC(F)(F)F)(c4ccc(F)cc4)C3=O)ccc1C(F)(F)F)C2` [Compound 68, (5R)-5-(4-fluorophenyl)-2-imino-3-[3-{[2-(methylamino)-5,7-dihydro-6H-pyrrolo[3,4-d]pyrimidin-6-yl]carbonyl}-4-(trifluoromethyl)-benzyl]-5-(4,4,4-trifluorobutyl)-imidazolidin-4-one] it is 8.3 nM. Turning to `CC(C)CCC1(c2ccccc2)NC(=N)N(Cc2cccc(C(=O)N3Cc4ccccc4C3)c2)C1=O` (centres unmarked) [Compound 204, 3-[3-(1,3-dihydro-2H-isoindol-2-ylcarbonyl)benzyl]-2-imino-5-(3-methylbutyl)-5-phenylimidazolidin-4-one], the concentration for half-maximal inhibition (IC50) came to 7.38 nM.

With `N=C1NC(CCC2CC2)(c2cc(F)cc(F)c2)C(=O)N1Cc1ccc(C(F)(F)F)c(C(=O)N2CCn3c(nnc3C(F)(F)F)C2)c1` (centres unmarked) [Compound 91, 5-(2-cyclopropylethyl)-5-(3,5-difluorophenyl)-2-imino-3-[4-(trifluoromethyl)-3-{[3-(trifluoro-methyl)-5,6-dihydro[1,2,4]triazolo-[4,3-a]pyrazin-7(8H)-yl]carbonyl}-benzyl]imidazolidin-4-one], the IC50 is 16.3 nM. To `CCCn1cc(-c2ncc3c(n2)CN(C(=O)c2cc(CN4C(=N)N[C@](CCCC(F)(F)F)(c5ccc(F)cc5)C4=O)ccc2C(F)(F)F)C3)cn1` [Compound 18, (5R)-5-(4-fluorophenyl)-2-imino-3-[3-{[2-(1-propyl-1H-pyrazol-4-yl)-5,7-dihydro-6H-pyrrolo[3,4-d]pyrimidin-6-yl]carbonyl}-4-(trifluoromethyl)benzyl]-5-(4,4,4-trifluorobutyl)imidazolidin-4-one] belongs 2 nM.
